# Source: patent US12077503B2, “Substituted cyclic amides and their use as herbicides” (FMC CORPORATION, priority 2015, dated 2024)
# Columns and labels:
# Format in all cases: in vivo
# [1] = tested on: Kochia (Kochia scoparia); experiment: Test A preemergence
# Method in brief: (§1)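 Preemergence soil spray on seeded pots or post-emergence spray on 1–2 leaf plants, in loam–sand blend. Greenhouse ~10 d. Visual rating 0–100 against untreated plants.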
# [2] = tested on: barnyardgrass (Echinochloa crus-galli); experiment: Test A preemergence
# Method in brief: as §1
# [3] = tested on: giant foxtail (Setaria faberii); experiment: Test A preemergence
# Method in brief: as §1
# [4] = tested on: pigweed (Amaranthus retroflexus); experiment: Test A preemergence
# [5] = tested on: ragweed (common ragweed, Ambrosia elatior); experiment: Test A preemergence
# Method in brief: as §1
# [6] = tested on: ryegrass, Italian (Italian ryegrass, Lolium multiflorum); experiment: Test A preemergence
# Method in brief: as §1
# [7] = tested on: Galium (catchweed bedstraw, Galium aparine); experiment: Test A postemergence
# Method in brief: as §1
# [8] = tested on: Kochia (Kochia scoparia); experiment: Test A postemergence
# Method in brief: as §1
# [9] = tested on: barnyardgrass (Echinochloa crus-galli); experiment: Test A postemergence
# Method in brief: as §1
# [10] = tested on: blackgrass (Alopecurus myosuroides); experiment: Test A postemergence
# Method in brief: as §1
# [11] = tested on: corn (Zea mays); experiment: Test A postemergence
# Method in brief: as §1
# [12] = tested on: giant foxtail (Setaria faberii); experiment: Test A postemergence
# Method in brief: as §1
# [13] = tested on: pigweed (Amaranthus retroflexus); experiment: Test A postemergence
# Method in brief: as §1
# [14] = tested on: ragweed (common ragweed, Ambrosia elatior); experiment: Test A postemergence
# Method in brief: as §1
# [15] = tested on: ryegrass, Italian (Italian ryegrass, Lolium multiflorum); experiment: Test A postemergence
# Method in brief: as §1
# [16] = tested on: wheat (Triticum aestivum); experiment: Test A postemergence
# Method in brief: as §1
# [17] = tested on: barnyardgrass (Echinochloa crus-galli); experiment: Test B flooded paddy test; conditions: Flood, 0 to 100 scale where 0 is no effect and 100 is complete control; for Plant response rating, Barnyardgrass: 13 to 15 d
# Method in brief: (§2)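 Compound goes directly into floodwater once pots are flooded 3 cm above soil, targeting plants at two leaves; the water depth is then held for the test duration. Plants sit 13–15 d in a greenhouse and are rated visually, 100 denoting complete control.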
# [18] = tested on: ducksalad (Heteranthera limosa); experiment: Test B flooded paddy test; conditions: Flood, 0 to 100 scale where 0 is no effect and 100 is complete control; for Plant response rating, Ducksalad: 13 to 15 d
# Method in brief: as §2
# [19] = tested on: rice (Oryra sativa); experiment: Test B flooded paddy test; conditions: Flood, 0 to 100 scale where 0 is no effect and 100 is complete control; for Plant response rating, Rice: 13 to 15 d
# Method in brief: as §2
# [20] = tested on: sedge, umbrella (small-flower umbrella sedge, Cyperus difformis); experiment: Test B flooded paddy test; conditions: Flood, 0 to 100 scale where 0 is no effect and 100 is complete control; for Plant response rating, Sedge, Umbrella: 13 to 15 d
# Method in brief: as §2
# [21] = 125 g ai/ha, preemergence, visual rating after approx. 10 d, 0 to 100 scale where 0 is no effect and 100 is complete control
# [22] = 500 g ai/ha, preemergence, 0 to 100 scale, 0 = no effect, 100 = complete control
# [23] = 125 g ai/ha, postemergence, visual injury after approximately 10 d, 0 to 100 scale (0 no effect, 100 complete control)
# [24] = 500 g ai/ha, postemergence, visual injury, 0 to 100 scale (0 no effect, 100 complete control), approx. 10 d
# [25] = 125 g ai/ha, Preemergence, visual injury after approximately 10 d, 0 to 100 scale where 0 is no effect and 100 is complete control
# [26] = Preemergence, 500 g ai/ha, visual injury approx. 10 d
# [27] = 125 g ai/ha, postemergence, visual injury rating on 0 to 100 scale (0 no effect, 100 complete control), approx. 10 d
# [28] = Postemergence, 500 g ai/ha, 0 to 100 scale where 0 is no effect and 100 is complete control
# [29] = 125 g ai/ha, postemergence, visual rating after approx. 10 d, 0 to 100 scale (0 no effect, 100 complete control)
# [30] = 125 g ai/ha, preemergence, visual injury rating, 0 to 100 scale where 0 is no effect and 100 is complete control, approximately 10 d
# [31] = 500 g ai/ha, preemergence, 0 to 100 scale where 0 is no effect and 100 is complete control
# [32] = 125 g ai/ha, postemergence, visual injury vs untreated controls after approx. 10 d, 0 = no effect, 100 = complete control
# [33] = 500 g ai/ha, postemergence, 0 to 100 scale, 0 is no effect, 100 is complete control
smiles,measurement,setting,value
O=C1NCC(c2ccc(I)cc2)C1C(=O)Nc1ccccc1F (racemic) [Compound 702],"Plant response rating, Kochia",[1]; [21],20
same,"Plant response rating, Kochia",[1]; [22],20
same,"Plant response rating, Barnyardgrass",[2]; [21],70
same,"Plant response rating, Barnyardgrass",[2]; [22],90
same,"Plant response rating, Foxtail, Giant",[3]; [21],90
same,"Plant response rating, Foxtail, Giant",[3]; [22],90
same,"Plant response rating, Pigweed",[4]; [21],0
same,"Plant response rating, Pigweed",[4]; [22],30
same,"Plant response rating, Ragweed",[5]; [21],0
same,"Plant response rating, Ragweed",[5]; [22],0
same,"Plant response rating, Ryegrass, Italian",[6]; [21],0
same,"Plant response rating, Ryegrass, Italian",[6]; [22],0
same,"Plant response rating, Galium",[7]; [23],0
same,"Plant response rating, Galium",[7]; [24],40
same,"Plant response rating, Kochia",[8]; [23],0
same,"Plant response rating, Kochia",[8]; [24],0
same,"Plant response rating, Barnyardgrass",[9]; [23],70
same,"Plant response rating, Barnyardgrass",[9]; [24],70
same,"Plant response rating, Blackgrass",[10]; [23],0
same,"Plant response rating, Blackgrass",[10]; [24],0
same,"Plant response rating, Corn",[11]; [23],0
same,"Plant response rating, Corn",[11]; [24],0
same,"Plant response rating, Foxtail, Giant",[12]; [23],30
same,"Plant response rating, Foxtail, Giant",[12]; [24],80
same,"Plant response rating, Pigweed",[13]; [23],0
same,"Plant response rating, Pigweed",[13]; [24],0
same,"Plant response rating, Ragweed",[14]; [23],0
same,"Plant response rating, Ragweed",[14]; [24],0
same,"Plant response rating, Ryegrass, Italian",[15]; [23],0
same,"Plant response rating, Ryegrass, Italian",[15]; [24],0
same,"Plant response rating, Wheat",[16]; [23],0
same,"Plant response rating, Wheat",[16]; [24],0
same,"Plant response rating, Barnyardgrass",[17]; 500 g ai/ha,50
same,"Plant response rating, Ducksalad",[18]; 500 g ai/ha,100
same,"Plant response rating, Rice",[19]; 500 g ai/ha,20
same,"Plant response rating, Sedge, Umbrella",[20]; 500 g ai/ha,0
COCc1cccc(C2CNC(=O)C2C(=O)Nc2ccccc2F)c1 (centres unmarked) [Compound 496],"Plant response rating, Kochia",[1]; [25],0
same,"Kochia plant response rating (0 to 100 scale, 0 is no effect, 100 is complete control)",[1]; [26],40
same,"Plant response rating, Barnyardgrass",[2]; [25],60
same,"Barnyardgrass plant response rating (0 to 100 scale, 0 is no effect, 100 is complete control)",[2]; [26],90
same,"Plant response rating, Foxtail, Giant",[3]; [25],30
same,"Foxtail, Giant plant response rating (0 to 100 scale, 0 is no effect, 100 is complete control)",[3]; [26],90
same,"Plant response rating, Pigweed",[4]; [25],0
same,"Pigweed plant response rating (0 to 100 scale, 0 is no effect, 100 is complete control)",[4]; [26],0
same,"Plant response rating, Ragweed",[5]; [25],0
same,"Ragweed plant response rating (0 to 100 scale, 0 is no effect, 100 is complete control)",[5]; [26],0
same,"Plant response rating, Ryegrass, Italian",[6]; [25],0
same,"Ryegrass, Italian plant response rating (0 to 100 scale, 0 is no effect, 100 is complete control)",[6]; [26],0
same,Galium plant response rating,[7]; [27],0
same,"Plant response rating, Galium",[7]; [28],30
same,Kochia plant response rating,[8]; [27],0
same,"Plant response rating, Kochia",[8]; [28],0
same,Barnyardgrass plant response rating,[9]; [27],60
same,"Plant response rating, Barnyardgrass",[9]; [28],80
same,Blackgrass plant response rating,[10]; [27],0
same,"Plant response rating, Blackgrass",[10]; [28],0
same,Corn plant response rating,[11]; [27],0
same,"Plant response rating, Corn",[11]; [28],0
same,"Foxtail, Giant plant response rating",[12]; [27],20
same,"Plant response rating, Foxtail, Giant",[12]; [28],50
same,Pigweed plant response rating,[13]; [27],0
same,"Plant response rating, Pigweed",[13]; [28],0
same,Ragweed plant response rating,[14]; [27],0
same,"Plant response rating, Ragweed",[14]; [28],0
same,"Ryegrass, Italian plant response rating",[15]; [27],0
same,"Plant response rating, Ryegrass, Italian",[15]; [28],0
same,Wheat plant response rating,[16]; [27],0
same,"Plant response rating, Wheat",[16]; [28],0
same,"Plant response rating, Barnyardgrass",[17]; 250 g ai/ha,60
same,"Plant response rating, Ducksalad",[18]; 250 g ai/ha,85
same,"Plant response rating, Rice",[19]; 250 g ai/ha,0
same,"Plant response rating, Sedge, Umbrella",[20]; 250 g ai/ha,0
Cc1ccc(C2CNC(=O)C2C(=O)Nc2ccc(F)cc2F)cc1C(F)(F)F (racemic) [Compound 655],"Plant response rating, Kochia",[1]; [25],30
same,"Plant response rating, Kochia",[1]; [22],40
same,"Plant response rating, Barnyardgrass",[2]; [25],90
same,"Plant response rating, Barnyardgrass",[2]; [22],90
same,"Plant response rating, Foxtail, Giant",[3]; [25],90
same,"Plant response rating, Foxtail, Giant",[3]; [22],90
same,"Plant response rating, Pigweed",[4]; [25],50
same,"Plant response rating, Pigweed",[4]; [22],60
same,"Plant response rating, Ragweed",[5]; [25],0
same,"Plant response rating, Ragweed",[5]; [22],30
same,"Plant response rating, Ryegrass, Italian",[6]; [25],40
same,"Plant response rating, Ryegrass, Italian",[6]; [22],60
same,"Plant response rating, Galium",[7]; [29],30
same,"Plant response rating, Galium",[7]; [24],50
same,"Plant response rating, Kochia",[8]; [29],30
same,"Plant response rating, Kochia",[8]; [24],40
same,"Plant response rating, Barnyardgrass",[9]; [29],70
same,"Plant response rating, Barnyardgrass",[9]; [24],90
same,"Plant response rating, Blackgrass",[10]; [29],20
same,"Plant response rating, Blackgrass",[10]; [24],30
same,"Plant response rating, Corn",[11]; [29],0
same,"Plant response rating, Corn",[11]; [24],30
same,"Plant response rating, Foxtail, Giant",[12]; [29],40
same,"Plant response rating, Foxtail, Giant",[12]; [24],60
same,"Plant response rating, Pigweed",[13]; [29],0
same,"Plant response rating, Pigweed",[13]; [24],0
same,"Plant response rating, Ragweed",[14]; [29],0
same,"Plant response rating, Ragweed",[14]; [24],0
same,"Plant response rating, Ryegrass, Italian",[15]; [29],0
same,"Plant response rating, Ryegrass, Italian",[15]; [24],30
same,"Plant response rating, Wheat",[16]; [29],0
same,"Plant response rating, Wheat",[16]; [24],10
same,"Plant response rating, Barnyardgrass",[17]; 250 g ai/ha,20
same,"Plant response rating, Ducksalad",[18]; 250 g ai/ha,100
same,"Plant response rating, Rice",[19]; 250 g ai/ha,30
same,"Plant response rating, Sedge, Umbrella",[20]; 250 g ai/ha,0
O=C1NCC(c2cccc(C(F)(F)F)c2)C1C(=O)Nc1ccccc1O (centres unmarked) [Compound 1241],Kochia plant response rating,[1]; [30],0
same,Kochia plant response rating,[1]; [31],0
same,Barnyardgrass plant response rating,[2]; [30],0
same,Barnyardgrass plant response rating,[2]; [31],0
same,"Foxtail, Giant plant response rating",[3]; [30],0
same,"Foxtail, Giant plant response rating",[3]; [31],0
same,Pigweed plant response rating,[4]; [30],0
same,Pigweed plant response rating,[4]; [31],0
same,Ragweed plant response rating,[5]; [30],0
same,Ragweed plant response rating,[5]; [31],0
same,"Ryegrass, Italian plant response rating",[6]; [30],0
same,"Ryegrass, Italian plant response rating",[6]; [31],0
same,Galium plant response rating (0 to 100 scale),[7]; [32],0
same,Galium plant response rating,[7]; [33],0
same,Kochia plant response rating (0 to 100 scale),[8]; [32],0
same,Kochia plant response rating,[8]; [33],0
same,Barnyardgrass plant response rating (0 to 100 scale),[9]; [32],0
same,Barnyardgrass plant response rating,[9]; [33],30
same,Blackgrass plant response rating (0 to 100 scale),[10]; [32],0
same,Blackgrass plant response rating,[10]; [33],0
same,Corn plant response rating (0 to 100 scale),[11]; [32],0
same,Corn plant response rating,[11]; [33],20
same,"Foxtail, Giant plant response rating (0 to 100 scale)",[12]; [32],0
same,"Foxtail, Giant plant response rating",[12]; [33],20
same,Pigweed plant response rating (0 to 100 scale),[13]; [32],0
same,Pigweed plant response rating,[13]; [33],0
same,Ragweed plant response rating (0 to 100 scale),[14]; [32],0
same,Ragweed plant response rating,[14]; [33],0
same,"Ryegrass, Italian plant response rating (0 to 100 scale)",[15]; [32],0
same,"Ryegrass, Italian plant response rating",[15]; [33],0
same,Wheat plant response rating (0 to 100 scale),[16]; [32],0
same,Barnyardgrass plant response rating,[17]; 250 g ai/ha,0
same,Ducksalad plant response rating,[18]; 250 g ai/ha,0
same,Rice plant response rating,[19]; 250 g ai/ha,0
same,"Sedge, Umbrella plant response rating",[20]; 250 g ai/ha,0
